The values below come from ChEMBL document CHEMBL1268926, “An o-aminoanilide analogue of 1α,25-dihydroxyvitamin D(3) functions as a strong vitamin D receptor antagonist” (J Med Chem, 2010).

Calls of active or inactive are those of the source. No cut-off for these calls is given here.

Test [1] has as its target Histone deacetylase (Homo sapiens) (UniProt Q13547+O15379+Q9UBN7+Q92769+Q9UQL6+Q8WUI4+Q9BY41+Q96DB2+P56524+Q9UKV0+Q969S8). As to the kind of experiment: Inhibition of HDAC in human SCC4 cells assessed as hyperacetylation of histone H4 at 1 uM by Western blotting. The following applies: SCC-4.
Another test has as its target T1, Vitamin D3 receptor (Homo sapiens, UniProt P11473).
T1 sequence (P11473 whole entry): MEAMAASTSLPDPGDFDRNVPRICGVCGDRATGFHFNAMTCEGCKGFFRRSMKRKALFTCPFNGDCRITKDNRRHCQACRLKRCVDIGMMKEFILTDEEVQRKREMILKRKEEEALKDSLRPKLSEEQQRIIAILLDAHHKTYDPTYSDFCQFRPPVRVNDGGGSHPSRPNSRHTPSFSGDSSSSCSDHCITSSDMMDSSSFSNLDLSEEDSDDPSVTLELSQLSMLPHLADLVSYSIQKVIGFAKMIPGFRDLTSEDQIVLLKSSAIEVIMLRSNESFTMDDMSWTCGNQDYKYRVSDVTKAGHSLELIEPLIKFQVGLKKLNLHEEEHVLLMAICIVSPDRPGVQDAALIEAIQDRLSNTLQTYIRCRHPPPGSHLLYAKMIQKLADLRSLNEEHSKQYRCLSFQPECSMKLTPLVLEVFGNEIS
As to the kind of experiment: Binding affinity to VDR-LBD by fluorescence polarization competition assay.

The target of a further test is Tubulin (Homo sapiens) (UniProt P68371+Q9H4B7+P0DPH7+P68366+Q13509+Q71U36+P04350+Q3ZCM7+P07437+P68363+Q9BQE3+Q6PEY2+Q13885+Q9BVA1+Q9BUF5). The test can be described thus: Inhibition of HDAC in human SCC25 cells assessed as hyperacetylation of tubulin at 1 uM by Western blotting. In kind it is cell-based. The following applies: SCC-25.
For test [2], the target named is T2, Vitamin D3 receptor (Homo sapiens) (UniProt P11473).
T2 sequence (whole entry): T1 sequence (P11473 whole entry)
The test can be described thus: Agonist activity at VDR in human SCC25 cells assessed as induction of CYP24 expression at 1 to 10 uM by RT-PCR analysis. The class given is functional, cell-based. The following applies: SCC-25.

Test [3] concerns the target T2, Vitamin D3 receptor (Homo sapiens). As to the kind of experiment: Agonist activity at VDR in human SCC25 cells assessed as induction of CYP24 expression at 1 to 10 uM by semiquantitative analysis. The following applies: SCC-25. The class given is functional, cell-based.
Test [4] deals with T3, Protein deacetylase HDAC6 (Homo sapiens) (UniProt Q9UBN7).
T3 sequence (whole entry): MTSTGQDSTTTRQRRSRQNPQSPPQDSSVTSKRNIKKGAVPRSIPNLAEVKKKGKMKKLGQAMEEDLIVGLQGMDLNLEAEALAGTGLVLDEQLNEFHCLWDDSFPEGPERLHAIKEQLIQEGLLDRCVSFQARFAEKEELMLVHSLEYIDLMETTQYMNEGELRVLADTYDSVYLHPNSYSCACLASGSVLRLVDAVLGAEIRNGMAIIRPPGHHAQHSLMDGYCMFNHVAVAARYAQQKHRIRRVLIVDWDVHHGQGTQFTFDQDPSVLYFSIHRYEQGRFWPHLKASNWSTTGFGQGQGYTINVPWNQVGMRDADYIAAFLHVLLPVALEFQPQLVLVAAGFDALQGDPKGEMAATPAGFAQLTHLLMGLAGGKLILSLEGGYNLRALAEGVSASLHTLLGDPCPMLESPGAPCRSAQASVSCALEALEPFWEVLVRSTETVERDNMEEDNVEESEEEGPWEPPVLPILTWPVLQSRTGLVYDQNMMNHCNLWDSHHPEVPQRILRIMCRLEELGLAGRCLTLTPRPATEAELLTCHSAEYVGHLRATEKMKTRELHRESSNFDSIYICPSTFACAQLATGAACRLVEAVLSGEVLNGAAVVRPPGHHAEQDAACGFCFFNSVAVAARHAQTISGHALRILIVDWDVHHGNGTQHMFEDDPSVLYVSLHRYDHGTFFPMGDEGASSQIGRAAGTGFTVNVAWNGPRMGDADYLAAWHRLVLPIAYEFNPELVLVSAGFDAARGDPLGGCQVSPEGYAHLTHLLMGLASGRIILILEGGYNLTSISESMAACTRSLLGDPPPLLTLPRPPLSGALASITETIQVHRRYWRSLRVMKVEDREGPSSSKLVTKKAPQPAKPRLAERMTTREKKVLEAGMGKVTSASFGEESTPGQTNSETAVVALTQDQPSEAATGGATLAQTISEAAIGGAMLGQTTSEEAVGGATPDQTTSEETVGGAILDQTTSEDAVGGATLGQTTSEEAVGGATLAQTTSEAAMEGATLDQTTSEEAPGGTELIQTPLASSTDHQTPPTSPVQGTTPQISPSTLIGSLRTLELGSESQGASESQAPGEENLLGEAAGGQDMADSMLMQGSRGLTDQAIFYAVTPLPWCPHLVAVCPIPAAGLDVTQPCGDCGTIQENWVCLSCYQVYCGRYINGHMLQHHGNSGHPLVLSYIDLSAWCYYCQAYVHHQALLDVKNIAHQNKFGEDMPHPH
The test can be described thus: Inhibition of human recombinant HDAC6 up to 1 mM by fluorescence assay.

The target of test [5] is T2, Vitamin D3 receptor (Homo sapiens). The following applies: 1uM.
Description: Inhibition of VDR agonist-mediated AIB1 recruitment to CYP24 promoter in ChIP assay at 1uM

For `C[C@H](CCCCC(=O)Nc1ccccc1N)[C@H]1CC[C@H]2/C(=C/C=C3C[C@@H](O)C[C@H](O)C3)CCC[C@]12C`, the inhibition result (in test [1]; on Tubulin (Homo sapiens)) was “Active” throughout. This compound also registered an IC50 at Vitamin D3 receptor of 248 nM.
`C=C1/C(=C\C=C2/CCC[C@]3(C)[C@@H]([C@H](C)/C=C/[C@@H](O)C4(C(=O)OCCCC)CC4)CC[C@@H]23)C[C@@H](O)C[C@@H]1O`: the result in test [2] and in test [3] was Active.
Consider `CC(/C=C/C(=O)Nc1ccccc1N)=C\[C@@H](C)[C@H]1CC[C@H]2/C(=C/C=C3CC(O)C[C@H](O)C3)CCC[C@]12C` (single isomer, unassigned), for which the inhibition result (in test [1]; in test [4]; on Tubulin (Homo sapiens)) was “inactive” throughout. The IC50 at Vitamin D3 receptor was found to be 107 nM. For the same compound, the outcome in test [2] and in test [3] was inactive. Also, the inhibition result in test [5] was “Active”.
